Test results published in ChEMBL document CHEMBL1146485, “Plant substances as anti-HIV agents selected according to their putative mechanism of action” (J Nat Prod, 2004).

Tests used:
[1] = system: Human immunodeficiency virus 1; test: Selectivity for HIV1 integrase over HIV1 reverse transcriptase
[2] = Elimination half life in po dosed human; type: ADME, organism-based; conditions: in vivo, read-out: beta t1/2 (converted)

| fold change (FC) [1] | half-life [2] [h] | SMILES |
| --- | --- | --- |
| 10 |  | O=C(/C=C/c1ccc(O)c(O)c1)O[C@@H]1C[C@](O)(C(=O)O)C[C@@H](OC(=O)/C=C/c2ccc(O)c(O)c2)[C@H]1O |
|  | 15 | CCCc1cc(=O)oc2c3c(c4c(c12)OC(C)(C)C=C4)O[C@H](C)[C@@H](C)[C@@H]3O [CALANOLIDE A] |
| 10 |  | O=C(/C=C/c1ccc(O)c(O)c1)O[C@@H](C(=O)O)[C@@H](OC(=O)/C=C/c1ccc(O)c(O)c1)C(=O)O |
